Measured values from ChEMBL document CHEMBL1201862, “PubChem BioAssay data set” (2004).
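The compound was tested at five concentrations on cells cultured in 96-well plates, with a 48-hour exposure period. GI50: concentration for 50% inhibition of growth.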 Activity calls are given as the source filed them. Cut-off read from the data, not from the text of the source: active = GI50 up to about 1.1 µM and inactive = higher.

Tests used:
Assay in all cases: DTP human tumour cell line panel, 48 h
[1] = tested on: A549
[2] = tested on: ACHN
[3] = tested on: CAKI-1
[4] = tested on: CCRF-CEM
[5] = tested on: EKVX
[6] = tested on: Hs-578T
[7] = tested on: K562
[8] = tested on: KM12
[9] = tested on: MCF7
[10] = tested on: NCI-H23
[11] = tested on: PC-3
[12] = tested on: SK-MEL-2
[13] = tested on: SK-MEL-5
[14] = tested on: SN12C
[15] = tested on: SNB-75
[16] = tested on: T47D
[17] = tested on: TK-10
[18] = tested on: UACC-257
[19] = tested on: UACC-62
[20] = tested on: MDA-N

Measured: GI50

CCN(CC)CC[S+]([O-])c1c2cc(OC)ccc2nc2ccc(OC)cc12 (configuration not stated)
inactive: [1] 24.9 µM | [2] 2.38 µM | [3] 9.75 µM | [4] 3.14 µM | [5] 15 µM | [6] 3.24 µM | [7] 5.78 µM | [8] 20.6 µM | [9] 2.42 µM | [10] 7.64 µM | [11] 12 µM | [12] 18.6 µM | [13] 16.5 µM | [14] 4.49 µM | [15] 19.6 µM | [16] 1.95 µM | [17] 5.56 µM | [18] 5.08 µM | [19] 17.8 µM

COc1ccccc1/C=C\C(=O)C1COCN1 (configuration not stated)
inactive: [1] 23.1 µM | [2] 10.7 µM | [3] 18.3 µM | [4] 3.77 µM | [5] 19.4 µM | [6] 16.3 µM | [7] 6.98 µM | [8] 4.39 µM | [9] 5.53 µM | [10] > 100 µM | [11] 13.2 µM | [12] 21.3 µM | [13] 10.6 µM | [14] 16.4 µM | [15] 18.6 µM | [16] 1.45 µM | [17] 21.2 µM | [18] 18.1 µM | [19] 14.5 µM

O=C1Cc2c([nH]c3ccccc23)C2(CC3CCCCN13)OCCO2 (configuration not stated)
inactive: [1] > 100 µM | [2] > 100 µM | [3] > 100 µM | [4] 90.4 µM | [5] > 100 µM | [6] 89.9 µM | [8] > 100 µM | [9] > 100 µM | [10] > 100 µM | [11] > 100 µM | [12] > 100 µM | [13] > 100 µM | [14] > 100 µM | [15] 62.8 µM | [16] > 100 µM | [17] > 100 µM | [18] > 100 µM | [19] 76.9 µM

COc1cc2c(c(OC)c1OC)C(=O)[C@H]1OC(=O)N[C@@H]21
inactive: [1] > 100 µM | [2] > 100 µM | [3] > 100 µM | [4] > 100 µM | [6] > 100 µM | [7] > 100 µM | [8] > 100 µM | [9] > 100 µM | [10] > 100 µM | [11] > 100 µM | [12] > 100 µM | [14] > 100 µM | [15] > 100 µM | [16] > 100 µM | [17] > 100 µM | [18] > 100 µM | [19] > 100 µM

CC(C)=C/C(CC(O)(C(F)(F)F)C(F)(F)F)=N\O
inactive: [1] > 100 µM | [2] > 100 µM | [4] > 100 µM | [5] > 100 µM | [6] > 100 µM | [7] > 100 µM | [8] > 100 µM | [9] > 100 µM | [10] > 100 µM | [13] > 100 µM | [14] > 100 µM | [15] > 100 µM | [16] > 100 µM | [17] > 100 µM | [18] > 100 µM | [19] > 100 µM

C=C1CN2CC(=C)CN(C1)CS(=O)(=O)N1CC(=C)CN(CC(=C)C1)S(=O)(=O)N1CC(=C)CN(CC(=C)C1)S(=O)(=O)C2
inactive: [1] 50.8 µM | [2] 47.1 µM | [3] > 100 µM | [5] 39.1 µM | [6] 25.4 µM | [7] 56.5 µM | [8] 40.4 µM | [9] 50.1 µM | [20] 52.5 µM | [10] 78.7 µM | [11] 17.7 µM | [12] 38.4 µM | [13] 19.4 µM | [14] 43.4 µM | [17] 22.1 µM | [18] 23.6 µM | [19] 93.3 µM

C=CC1(CC[C@]2(c3ccc(OC)c(OC)c3)C=[N+]([O-])O[C@H](O[C@@H]3CCCC[C@H]3C(C)(C)c3ccccc3)C2)OCC(C)(C)CO1
inactive: [1] 14.6 µM | [2] 16 µM | [3] 6.95 µM | [4] 4.18 µM | [5] 12.7 µM | [7] 8.17 µM | [8] 14.3 µM | [9] 3.65 µM | [20] 6.11 µM | [10] 16.2 µM | [11] 7.23 µM | [12] 12.6 µM | [13] 14.7 µM | [14] 10.8 µM | [15] 9.62 µM | [16] 11.6 µM | [17] 25.4 µM | [18] 18.8 µM | [19] 14 µM

Nc1csc(-c2scc3c2OCCO3)c1N
inactive: [1] 21.4 µM | [2] 36.4 µM | [3] 32.1 µM | [5] 18.2 µM | [6] 27.8 µM | [7] 24.4 µM | [8] 20.4 µM | [9] 16.4 µM | [20] 15.4 µM | [10] 15.5 µM | [11] 23 µM | [12] 17.5 µM | [13] 14.9 µM | [14] 17.3 µM | [17] 33.1 µM | [18] 16.7 µM | [19] 14.4 µM
